Here are results for one compound from patent US8187635B2, “Pharmaceutical composition containing a pyrrolidone anticonvulsant agent and method for the preparation thereof” (Pharmathen S.A, priority 2007, dated 2012).

Data set [1] can be described thus: Compatibility of Levetiracetam with excipients (impurity profile). The class given is physicochemical. The protocol:
Levetiracetam was tested for its compatibility with several pharmaceutically acceptable excipients comprising the above mentioned properties.

The conditions of data set [2]: cited from earlier work.
For data set [3] the following is noted: cited from earlier work. This is another data set of the same source.

Structures are written as SMILES. Like-named read-outs stand apart in the source and are kept apart here.

`CC[C@@H](C(N)=O)N1CCCC1=O` [Levetiracetam, S-enantiomer of α-ethyl-2-oxo-1-pyrrolidine acetamide]: the “impurity profile of the active ingredient with excipient” value in data set [1] (with PVP) and in data set [1] (with sodium starch glycolate (Primojel)) was “not acceptable” each time. The solubility result is listed as “sparingly soluble” in data set [2] (in acetonitrile); “freely soluble” in data set [2] (in chloroform); “freely soluble” in data set [2] (in methanol); “practically insoluble” in data set [2] (in n-hexane); “very soluble” in data set [2] (in water). In addition, the bioavailability (as a rule, dose-corrected exposure relative to a reference, in per cent) in data set [3] is given as 100%. The protein binding result in data set [3] is given as “lack of protein binding”.
